Test results as given in patent US20100298141A1, “SUBSTITUTED PYRIDINE N-OXIDE HERBICIDES” (E. I. DU PONT DE NEMOURS AND COMPANY, priority 2007, published 2010).

Tests used:
kochia = test: Test C pre-/postemergence test; format: in vivo, Kochia scoparia; details: for Plant response rating, Kochia: 31 g ai/ha, scale 0 to 100 (0 no effect, 100 complete control)
Procedure, shortened: (§1)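 Compounds in a non-phytotoxic solvent with surfactant applied preemergence to seeded pots and, at the same time, postemergence to plants 2–18 cm tall (1- to 4-leaf stage). Paddy tests: pots flooded to 3 cm, compound applied into the water, depth held throughout.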

Italian ryegrass = test: Test C pre-/postemergence test; format: in vivo, Lolium multiflorum; details: for Plant response rating, Ryegrass, Italian: 31 g ai/ha, scale 0 to 100 (0 no effect, 100 complete control)
Procedure, shortened: as §1

barnyardgrass = test: Test A pre-/postemergence greenhouse test; format: in vivo, Echinochloa crus-galli; details: for Plant response rating, Barnyardgrass: 0 to 100 scale where 0 is no effect and 100 is complete control; for Barnyardgrass plant response rating: 0 to 100 scale
Procedure, shortened: (§2)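 Visual injury ratings, made relative to untreated controls roughly ten days after treatment, cover both preemergence and postemergence application. Compounds in a surfactant-containing non-phytotoxic solvent were sprayed onto the soil surface after sowing and, simultaneously, onto young plants at the one- to two-leaf stage.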

yellow nutsedge = test: Test C pre-/postemergence test; format: in vivo, Cyperus esculentus; details: for Plant response rating, Nutsedge, Yellow: 31 g ai/ha, scale 0 to 100 (0 no effect, 100 complete control)
Procedure, shortened: as §1

umbrella sedge = test: Test C flooded paddy test; format: in vivo, Cyperus difformis; details: Flood
Procedure, shortened: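 Ratings were visual and made relative to untreated controls after 13 to 15 greenhouse days.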

wheat = test: Test C pre-/postemergence test; format: in vivo, Triticum aestivum; details: for Plant response rating, Wheat: 31 g ai/ha, scale 0 to 100 (0 no effect, 100 complete control)
Procedure, shortened: as §1

morningglory [1] = test: Test A pre-/postemergence greenhouse test; format: in vivo, Ipomoea spp.; details: for Plant response rating, Morningglory: 0 to 100 scale where 0 is no effect and 100 is complete control; for Morningglory plant response rating: 0 to 100 scale
Procedure, shortened: as §2

soybean = test: Test C pre-/postemergence test; format: in vivo, Glycine max; details: for Plant response rating, Soybean: 31 g ai/ha, scale 0 to 100 (0 no effect, 100 complete control)
Procedure, shortened: as §1

[2] = tested on: common (oilseed) sunflower; test: Test C pre-/postemergence test; format: in vivo, Helianthus annuus; details: for Plant response rating, Sunflower: 31 g ai/ha, scale 0 to 100 (0 no effect, 100 complete control)
Procedure, shortened: as §1

corn = test: Test C pre-/postemergence test; format: in vivo, Zea mays; details: for Plant response rating, Corn: 31 g ai/ha, scale 0 to 100 (0 no effect, 100 complete control)
Procedure, shortened: as §1

blackgrass = test: Test C pre-/postemergence test; format: in vivo, Alopecurus myosuroides; details: for Plant response rating, Blackgrass: 31 g ai/ha, scale 0 to 100 (0 no effect, 100 complete control)
Procedure, shortened: as §1

cocklebur = test: Test C pre-/postemergence test; format: in vivo, Xanthium strumarium; details: for Plant response rating, Cocklebur: 31 g ai/ha, scale 0 to 100 (0 no effect, 100 complete control)
Procedure, shortened: as §1

green foxtail = test: Test C pre-/postemergence test; format: in vivo, Setaria viridis; details: for Plant response rating, Foxtail, Green: 31 g ai/ha, scale 0 to 100 (0 no effect, 100 complete control)
Procedure, shortened: as §1

pigweed = test: Test C pre-/postemergence test; format: in vivo, Amaranthus retroflexus; details: for Plant response rating, Pigweed: 31 g ai/ha, scale 0 to 100 (0 no effect, 100 complete control)
Procedure, shortened: as §1

woolly cupgrass = test: Test C pre-/postemergence test; format: in vivo, Eriochloa villosa; details: for Plant response rating, Cupgrass, Woolly: 31 g ai/ha, scale 0 to 100 (0 no effect, 100 complete control)
Procedure, shortened: as §1

morningglory [3] = test: Test C pre-/postemergence test; format: in vivo, Ipomoea coccinea; details: for Plant response rating, Morningglory: 31 g ai/ha, scale 0 to 100 (0 no effect, 100 complete control)
Procedure, shortened: as §1

crabgrass = test: Test C pre-/postemergence test; format: in vivo, Digitaria sanguinalis; details: for Plant response rating, Crabgrass, Large: 31 g ai/ha, scale 0 to 100 (0 no effect, 100 complete control)
Procedure, shortened: as §1

[4] = 62 g ai/ha, Preemergence, scale 0 to 100
[5] = 125 g ai/ha, preemergence, scale 0 (no effect) to 100 (complete control)
[6] = preemergence, 250 g ai/ha, scale 0 (no effect) to 100 (complete control)
[7] = Postemergence, 500 g ai/ha, 0 is no effect, 100 is complete control
[8] = Preemergence, 125 g ai/ha, 0 no effect, 100 complete control
[9] = Preemergence, 500 g ai/ha, 0 no effect, 100 complete control
[10] = 250 g ai/ha, scale 0 to 100, 0 no effect, 100 complete control, 13 to 15 days
[11] = Postemergence, 125 g ai/ha, 0 is no effect, 100 is complete control
[12] = preemergence, 125 g ai/ha, scale 0 (no effect) to 100 (complete control)

Cc1cc[n+]([O-])c(S(=O)(=O)Cc2c(C(F)(F)C(F)(F)F)nn(C)c2OCC(F)(F)F)c1 [Compound 99]
Kochia plant response rating (kochia; [4]): 100 | Kochia plant response rating (kochia; [5]): 100 | Plant response rating, Kochia (kochia; Preemergence): 100 | Kochia plant response rating (kochia; [6]): 100 | Ryegrass, Italian plant response rating (Italian ryegrass; [4]): 70 | Ryegrass, Italian plant response rating (Italian ryegrass; [5]): 75 | Plant response rating, Ryegrass, Italian (Italian ryegrass; Preemergence): 70 | Ryegrass, Italian plant response rating (Italian ryegrass; [6]): 100 | Plant response rating, Barnyardgrass (barnyardgrass; Postemergence, 125 g ai/ha): 60 | Barnyardgrass plant response rating (barnyardgrass; [7]): 80 | Barnyardgrass plant response rating (barnyardgrass; [8]): 70 | Barnyardgrass plant response rating (barnyardgrass; [9]): 100 | Nutsedge, Yellow plant response rating (yellow nutsedge; [4]): 60 | Nutsedge, Yellow plant response rating (yellow nutsedge; [5]): 60 | Plant response rating, Nutsedge, Yellow (yellow nutsedge; Preemergence): 0 | Nutsedge, Yellow plant response rating (yellow nutsedge; [6]): 80 | Plant response rating, Sedge, Umbrella (umbrella sedge; 62 g ai/ha, scale 0 to 100 (0 no effect, 100 complete control)): 0 | Plant response rating, Sedge, Umbrella (umbrella sedge; [10]): 65 | Wheat plant response rating (wheat; [4]): 55 | Wheat plant response rating (wheat; [5]): 55 | Plant response rating, Wheat (wheat; Preemergence): 25 | Wheat plant response rating (wheat; [6]): 95 | Plant response rating, Morningglory (morningglory [1]; Postemergence, 125 g ai/ha): 40 | Morningglory plant response rating (morningglory [1]; [7]): 50 | Morningglory plant response rating (morningglory [1]; [8]): 50 | Morningglory plant response rating (morningglory [1]; [9]): 100 | Soybean plant response rating (soybean; [4]): 25 | Soybean plant response rating (soybean; [5]): 30 | Plant response rating, Soybean (soybean; Preemergence): 0 | Soybean plant response rating (soybean; [6]): 98 | Sunflower plant response rating [2, 4]: 30 | Sunflower plant response rating [2, 5]: 30 | Plant response rating, Sunflower ([2]; Preemergence): 30 | Sunflower plant response rating [2, 6]: 40 | Corn plant response rating (corn; [4]): 0 | Corn plant response rating (corn; [5]): 30 | Plant response rating, Corn (corn; Preemergence): 0 | Corn plant response rating (corn; [6]): 50 | Blackgrass plant response rating (blackgrass; [4]): 100 | Blackgrass plant response rating (blackgrass; [5]): 100 | Plant response rating, Blackgrass (blackgrass; Preemergence): 80 | Blackgrass plant response rating (blackgrass; [6]): 100 | Cocklebur plant response rating (cocklebur; [4]): 0 | Cocklebur plant response rating (cocklebur; [5]): 0 | Plant response rating, Cocklebur (cocklebur; Preemergence): 0 | Cocklebur plant response rating (cocklebur; [6]): 30 | Foxtail, Green plant response rating (green foxtail; [4]): 80 | Foxtail, Green plant response rating (green foxtail; [5]): 100 | Plant response rating, Foxtail, Green (green foxtail; Preemergence): 80 | Foxtail, Green plant response rating (green foxtail; [6]): 100 | Pigweed plant response rating (pigweed; [4]): 100 | Pigweed plant response rating (pigweed; [5]): 100 | Plant response rating, Pigweed (pigweed; Preemergence): 100 | Pigweed plant response rating (pigweed; [6]): 100 | Cupgrass, Woolly plant response rating (woolly cupgrass; [4]): 0 | Cupgrass, Woolly plant response rating (woolly cupgrass; [5]): 70 | Plant response rating, Cupgrass, Woolly (woolly cupgrass; Preemergence): 0 | Cupgrass, Woolly plant response rating (woolly cupgrass; [6]): 85 | Morningglory plant response rating (morningglory [3]; [4]): 100 | Morningglory plant response rating (morningglory [3]; [5]): 100 | Plant response rating, Morningglory (morningglory [3]; Preemergence): 65 | Morningglory plant response rating (morningglory [3]; [6]): 100 | Crabgrass, Large plant response rating (crabgrass; [4]): 100 | Crabgrass, Large plant response rating (crabgrass; [5]): 100 | Plant response rating, Crabgrass, Large (crabgrass; Preemergence): 80 | Crabgrass, Large plant response rating (crabgrass; [6]): 100

Cc1cc[n+]([O-])c([S+]([O-])Cc2c(C(F)(F)F)nn(C)c2Cl)c1 (racemic) [Compound 20]
Kochia plant response rating (kochia; [4]): 100 | Plant response rating, Kochia (kochia; Preemergence): 0 | Ryegrass, Italian plant response rating (Italian ryegrass; [4]): 60 | Plant response rating, Ryegrass, Italian (Italian ryegrass; Preemergence): 30 | Barnyardgrass plant response rating (barnyardgrass; [11]): 40 | Barnyardgrass plant response rating (barnyardgrass; [7]): 80 | Barnyardgrass plant response rating (barnyardgrass; [8]): 70 | Plant response rating, Barnyardgrass (barnyardgrass; Preemergence, 500 g ai/ha): 100 | Nutsedge, Yellow plant response rating (yellow nutsedge; [4]): 10 | Plant response rating, Nutsedge, Yellow (yellow nutsedge; Preemergence): 0 | Plant response rating, Sedge, Umbrella (umbrella sedge; 31 g ai/ha, scale 0 to 100 (0 no effect, 100 complete control)): 0 | Plant response rating, Sedge, Umbrella (umbrella sedge; 62 g ai/ha, scale 0 to 100, 0 no effect, 100 complete control, 13 to 15 days): 0 | Plant response rating, Sedge, Umbrella (umbrella sedge; 125 g ai/ha, scale 0 to 100, 0 no effect, 100 complete control, 13 to 15 days): 85 | Plant response rating, Sedge, Umbrella (umbrella sedge; [10]): 85 | Wheat plant response rating (wheat; [4]): 70 | Plant response rating, Wheat (wheat; Preemergence): 0 | Morningglory plant response rating (morningglory [1]; [11]): 40 | Morningglory plant response rating (morningglory [1]; [7]): 60 | Morningglory plant response rating (morningglory [1]; [8]): 70 | Plant response rating, Morningglory (morningglory [1]; Preemergence, 500 g ai/ha): 80 | Soybean plant response rating (soybean; [4]): 0 | Plant response rating, Soybean (soybean; Preemergence): 0 | Sunflower plant response rating [2, 4]: 0 | Plant response rating, Sunflower ([2]; Preemergence): 0 | Corn plant response rating (corn; [4]): 20 | Plant response rating, Corn (corn; Preemergence): 0 | Plant response rating (0 to 100), Corn (corn; Preemergence, 250 g ai/ha): 85 | Corn plant response rating (corn; [12]): 50 | Blackgrass plant response rating (blackgrass; [4]): 98 | Plant response rating, Blackgrass (blackgrass; Preemergence): 70 | Plant response rating (0 to 100), Blackgrass (blackgrass; Preemergence, 250 g ai/ha): 100 | Blackgrass plant response rating (blackgrass; [12]): 100 | Cocklebur plant response rating (cocklebur; [4]): 0 | Plant response rating, Cocklebur (cocklebur; Preemergence): 0 | Plant response rating (0 to 100), Cocklebur (cocklebur; Preemergence, 250 g ai/ha): 20 | Cocklebur plant response rating (cocklebur; [12]): 0 | Foxtail, Green plant response rating (green foxtail; [4]): 100 | Plant response rating, Foxtail, Green (green foxtail; Preemergence): 98 | Plant response rating (0 to 100), Foxtail, Green (green foxtail; Preemergence, 250 g ai/ha): 100 | Pigweed plant response rating (pigweed; [4]): 100 | Plant response rating, Pigweed (pigweed; Preemergence): 80 | Cupgrass, Woolly plant response rating (woolly cupgrass; [4]): 70 | Plant response rating, Cupgrass, Woolly (woolly cupgrass; Preemergence): 0 | Plant response rating (0 to 100), Cupgrass, Woolly (woolly cupgrass; Preemergence, 250 g ai/ha): 100 | Morningglory plant response rating (morningglory [3]; [4]): 85 | Plant response rating, Morningglory (morningglory [3]; Preemergence): 0 | Crabgrass, Large plant response rating (crabgrass; [4]): 100 | Plant response rating, Crabgrass, Large (crabgrass; Preemergence): 85 | Plant response rating (0 to 100), Crabgrass, Large (crabgrass; Preemergence, 250 g ai/ha): 100
